Measurements taken from US10967078B2, “Radiolabelled mGluR2 PET ligands” (Janssen Pharmaceutica NV, priority 2014, dated 2021).

Experiment: Biodistribution studies in normal female Wistar rats
Type: in vivo, rat
Conditions: for % ID blood / SUV blood / % ID bone / SUV bone / % ID carcass / % ID cerebellum / SUV cerebellum / SUV cerebrum + cerebellum / % ID cerebrum total / % ID cortex / SUV cortex / % ID heart / % ID hippocampus / SUV hippocampus / % ID intestines / % ID kidneys / % ID liver / % ID lungs / % ID muscle / SUV muscle / % ID rest of cerebrum / SUV rest of cerebrum / % ID spleen + pancreas / % ID stomach / % ID striatum / SUV striatum / % ID urine / SUV whole cerebrum: mean n=3; for SUV cerebrum + cerebellum / Total brain uptake: cerebrum + cerebellum; for Total brain uptake: n=3
Method: High-performance liquid chromatography (HPLC) analysis was performed on a LaChrom Elite® HPLC system (Hitachi, Armstadt, Germany) connected to a UV spectrometer. For the analysis of radiolabeled compounds, the HPLC eluate, after passage through the UV detector, was led over a shielded 3-inch NaI(Tl) scintillation detector connected to a single channel analyser (Gabi box, Raytest, Straubenhardt, Germany). The output signal was recorded and analysed using a GINA Star data acquisition system (Raytest, Straubenhardt, Germany). Radioactivity in samples of biodistribution studies was quantified using an automated gamma counter equipped with a 3-inch NaI(Tl) well crystal coupled to a multichannel analyser (Wallac 2480 Wizard, Wallac, Turku, Finland). Results were corrected for background radiation, physical decay and counter dead time. Animals were housed in individually ventilated cages in a thermoregulated (˜22° C.), humidity-controlled facility under a 12 h/12 h light/dark cycle with access to food and water ad libitum. All animal experiments were conducted according to the Belgian code of practice for the care and use of animals, after approval from the local University Ethics Committee for Animals.
Biodistribution studies of [^11C]-2 and [^11C]-1 were carried out in healthy female Wister rats (body weight 185-220 g) at 2 min, 30 min and 60 min post injection (p.i.) (n=3/time point). Rats were injected with about 18 MBq of the tracer via a tail vein under anesthesia (2.5% isoflurane in O2 at 1 L/min flow rate) and sacrificed by decapitation at the above specified time points. Blood and major organs were collected in tared tubes and weighed. The radioactivity in blood, organs and other body parts was measured using an automated gamma counter. For calculation of total blood radioactivity, blood mass was assumed to be 7% of the body mass. For calculation of total muscle and total bone radioactivity, muscle and bone mass were assumed to be 40% and 12% of the body mass, respectively.

C[C@H]1CN(c2ccc(C(F)(F)F)cc2)C(=O)c2c(-c3ccnc(N[11CH3])c3)cnn21 [[^11C]-2]
2 min - to- 30 min wash-out ratio (blood): 1.75
% ID blood (blood, 2 min p.i.): 4.9 % ID
SUV blood (blood, 2 min p.i.): 0.70 SUV
% ID blood (blood, 30 min p.i.): 2.8 % ID
SUV blood (blood, 30 min p.i.): 0.40 SUV
% ID blood (blood, 60 min p.i.): 2.0 % ID
SUV blood (blood, 60 min p.i.): 0.29 SUV
2 min - to- 30 min wash-out ratio (bone): 1.34
% ID bone (bone, 2 min p.i.): 7.0 % ID
SUV bone (bone, 2 min p.i.): 0.59 SUV
% ID bone (bone, 30 min p.i.): 4.9 % ID
SUV bone (bone, 30 min p.i.): 0.44 SUV
% ID bone (bone, 60 min p.i.): 4.2 % ID
SUV bone (bone, 60 min p.i.): 0.37 SUV
% ID carcass (2 min p.i.): 39.5 % ID
% ID carcass (30 min p.i.): 49.9 % ID
% ID carcass (60 min p.i.): 44.8 % ID
2 min - to- 30 min wash-out ratio (cerebellum): 2.85
% ID cerebellum (cerebellum, 2 min p.i.): 0.279 % ID
SUV cerebellum (cerebellum, 2 min p.i.): 1.78 SUV
% ID cerebellum (cerebellum, 30 min p.i.): 0.084 % ID
SUV cerebellum (cerebellum, 30 min p.i.): 0.62 SUV
% ID cerebellum (cerebellum, 60 min p.i.): 0.058 % ID
SUV cerebellum (cerebellum, 60 min p.i.): 0.45 SUV
SUV cerebrum + cerebellum (2 min p.i.): 1.80 SUV
Total brain uptake (2 min p.i.): 1.4 % ID
Total brain uptake (2 min p.i., listed as [^11C-2]): 1.44 ± 0.24 % ID
SUV cerebrum + cerebellum (30 min p.i.): 0.67 SUV
Total brain uptake (30 min p.i.): 0.50 ± 0.05 % ID
SUV cerebrum + cerebellum (60 min p.i.): 0.49 SUV
Total brain uptake (60 min p.i.): 0.38 ± 0.03 % ID
% ID cerebrum total (2 min p.i.): 1.153 % ID
% ID cerebrum total (30 min p.i.): 0.408 % ID
% ID cerebrum total (60 min p.i.): 0.316 % ID
2 min - to- 30 min wash-out ratio (cortex): 3.04
% ID cortex (cortex, 2 min p.i.): 0.064 % ID
SUV cortex (cortex, 2 min p.i.): 2.23 SUV
% ID cortex (cortex, 30 min p.i.): 0.024 % ID
SUV cortex (cortex, 30 min p.i.): 0.74 SUV
% ID cortex (cortex, 60 min p.i.): 0.014 % ID
SUV cortex (cortex, 60 min p.i.): 0.58 SUV
% ID heart (2 min p.i.): 1.0 % ID
% ID heart (30 min p.i.): 0.4 % ID
% ID heart (60 min p.i.): 0.3 % ID
2 min - to- 30 min wash-out ratio (hippocampus): 2.31
% ID hippocampus (hippocampus, 2 min p.i.): 0.046 % ID
SUV hippocampus (hippocampus, 2 min p.i.): 1.49 SUV
% ID hippocampus (hippocampus, 30 min p.i.): 0.018 % ID
SUV hippocampus (hippocampus, 30 min p.i.): 0.64 SUV
% ID hippocampus (hippocampus, 60 min p.i.): 0.016 % ID
SUV hippocampus (hippocampus, 60 min p.i.): 0.49 SUV
% ID intestines (2 min p.i.): 12.2 % ID
% ID intestines (30 min p.i.): 19.4 % ID
% ID intestines (60 min p.i.): 24.2 % ID
% ID kidneys (2 min p.i.): 5.3 % ID
% ID kidneys (30 min p.i.): 2.2 % ID
% ID kidneys (60 min p.i.): 1.6 % ID
% ID liver (2 min p.i.): 26.5 % ID
% ID liver (30 min p.i.): 16.0 % ID
% ID liver (60 min p.i.): 11.9 % ID
% ID lungs (2 min p.i.): 6.8 % ID
% ID lungs (30 min p.i.): 1.8 % ID
% ID lungs (60 min p.i.): 1.3 % ID
2 min - to- 30 min wash-out ratio (muscle): 0.46
% ID muscle (muscle, 2 min p.i.): 11.1 % ID
SUV muscle (muscle, 2 min p.i.): 0.26 SUV
% ID muscle (muscle, 30 min p.i.): 24.1 % ID
SUV muscle (muscle, 30 min p.i.): 0.56 SUV
% ID muscle (muscle, 60 min p.i.): 21.4 % ID
SUV muscle (muscle, 60 min p.i.): 0.48 SUV
2 min - to- 30 min wash-out ratio (rest of cerebrum): 2.71
% ID rest of cerebrum (rest of cerebrum, 2 min p.i.): 0.944 % ID
SUV rest of cerebrum (rest of cerebrum, 2 min p.i.): 1.79 SUV
% ID rest of cerebrum (rest of cerebrum, 30 min p.i.): 0.323 % ID
SUV rest of cerebrum (rest of cerebrum, 30 min p.i.): 0.66 SUV
% ID rest of cerebrum (rest of cerebrum, 60 min p.i.): 0.256 % ID
SUV rest of cerebrum (rest of cerebrum, 60 min p.i.): 0.49 SUV
% ID spleen + pancreas (2 min p.i.): 2.4 % ID
% ID spleen + pancreas (30 min p.i.): 1.4 % ID
% ID spleen + pancreas (60 min p.i.): 1.1 % ID
% ID stomach (2 min p.i.): 2.3 % ID
% ID stomach (30 min p.i.): 6.5 % ID
% ID stomach (60 min p.i.): 12.3 % ID
2 min - to- 30 min wash-out ratio (striatum): 2.59
% ID striatum (striatum, 2 min p.i.): 0.099 % ID
SUV striatum (striatum, 2 min p.i.): 1.68 SUV
% ID striatum (striatum, 30 min p.i.): 0.043 % ID
SUV striatum (striatum, 30 min p.i.): 0.65 SUV
% ID striatum (striatum, 60 min p.i.): 0.030 % ID
SUV striatum (striatum, 60 min p.i.): 0.49 SUV
% ID urine (2 min p.i.): 0.1 % ID
% ID urine (30 min p.i.): 0.5 % ID
% ID urine (60 min p.i.): 11 % ID
2 min - to- 30 min wash-out ratio (whole cerebrum): 2.70
SUV whole cerebrum (whole cerebrum, 2 min p.i.): 1.79 SUV
SUV whole cerebrum (whole cerebrum, 30 min p.i.): 0.66 SUV
SUV whole cerebrum (whole cerebrum, 60 min p.i.): 0.49 SUV
